From ChEMBL document CHEMBL1268979, “Discovery of highly potent and efficacious MC4R agonists with spiroindane N-Me-1,2,4-triazole privileged structures for the treatment of obesity” (Bioorg Med Chem Lett, 2010)
The source made the active and inactive calls. The rule behind the calls is not given here.

Columns and labels:
[1] = molecular target: T1, Melanocortin receptor 4 (Homo sapiens, UniProt P32245); test: Inhibition of human MC4 receptor
[2] = molecular target: T1, Melanocortin receptor 4; test: Agonist activity at human MC4 receptor; type: functional
[3] = molecular target: T1, Melanocortin receptor 4; test: Agonist activity at human MC4 receptor assessed as receptor activation; type: functional
[4] = Agonist activity at human MC1b receptor; type: functional
[5] = species on record: Homo sapiens; test: Agonist activity at human MC1b receptor assessed as receptor activation; type: functional; design: concentration or dose not given beside the values
[6] = Oral bioavailability in Sprague-Dawley rat at 1 mg/kg, iv and 4 mg/kg, po; type: ADME, organism-based; conditions: in vivo
[7] = Clearance in Sprague-Dawley rat at 1 mg/kg, iv and 4 mg/kg, po; type: ADME, organism-based; conditions: in vivo
[8] = Volume of distribution in Sprague-Dawley rat at 1 mg/kg, iv and 4 mg/kg, po; type: ADME, organism-based; conditions: in vivo
[9] = Half life in Sprague-Dawley rat at 1 mg/kg, iv and 4 mg/kg, po; type: ADME, organism-based; conditions: in vivo
[10] = tested on: Mus musculus; test: Reduction in food intake in DIO mouse obesity model at 20 mg/kg, po after 18 hrs; type: functional
[11] = tested on: Mus musculus; test: Reduction in food intake in DIO mouse obesity model at 6 mg/kg, po after 18 hrs; type: functional
[12] = tested on: Mus musculus; test: Reduction in food intake in DIO mouse obesity model at 3 mg/kg, po after 18 hrs; type: functional
[13] = tested on: Mus musculus; test: Reduction in food intake in DIO mouse obesity model at 20 mg/kg, po after 4 hrs; type: functional
[14] = tested on: Mus musculus; test: Reduction in food intake in DIO mouse obesity model at 6 mg/kg, po after 4 hrs; type: functional
[15] = tested on: Mus musculus; test: Reduction in food intake in DIO mouse obesity model at 3 mg/kg, po after 4 hrs; type: functional
[16] = tested on: Mus musculus; test: Reduction in food intake in wild type mouse at 20 mg/kg, po after 4 hrs; type: functional
[17] = tested on: Mus musculus; test: Reduction in food intake in wild type mouse at 10 mg/kg, po after 4 hrs; type: functional
[18] = tested on: Mus musculus; test: Reduction in food intake in wild type mouse at 20 mg/kg, po after 18 hrs; type: functional
[19] = tested on: Mus musculus; test: Reduction in food intake in wild type mouse at 10 mg/kg, po after 18 hrs; type: functional
[20] = tested on: Mus musculus; test: Reduction in food intake in MC4R/3R knockout mouse at 10 mg/kg, po after 4 hrs; type: functional
[21] = tested on: Mus musculus; test: Reduction in food intake in MC4R/3R knockout mouse at 10 mg/kg, po after 18 hrs; type: functional
[22] = tested on: Mus musculus; test: Reduction in food intake in DIO mouse obesity model at 10 mg/kg, po measured for 18 hrs; type: functional
[23] = tested on: Mus musculus; test: Reduction in food intake in DIO mouse obesity model at 1 mg/kg, po measured for 18 hrs; type: functional
[24] = tested on: Mus musculus; test: Reduction in food intake in DIO mouse obesity model at 3 mg/kg, po measured for 18 hrs; type: functional
[25] = tested on: Mus musculus; test: Reduction in body weight in DIO mouse obesity model at 20 mg/kg, po after 4 hrs; type: functional, organism-based; design: dose 20 mg/kg
[26] = tested on: Mus musculus; test: Reduction in body weight in DIO mouse obesity model at 6 mg/kg, po after 4 hrs; type: functional, organism-based; design: dose 6 mg/kg
[27] = tested on: Mus musculus; test: Reduction in body weight in DIO mouse obesity model at 3 mg/kg, po after 4 hrs; type: functional, organism-based; design: dose 3 mg/kg

T1 sequence (P32245 whole entry): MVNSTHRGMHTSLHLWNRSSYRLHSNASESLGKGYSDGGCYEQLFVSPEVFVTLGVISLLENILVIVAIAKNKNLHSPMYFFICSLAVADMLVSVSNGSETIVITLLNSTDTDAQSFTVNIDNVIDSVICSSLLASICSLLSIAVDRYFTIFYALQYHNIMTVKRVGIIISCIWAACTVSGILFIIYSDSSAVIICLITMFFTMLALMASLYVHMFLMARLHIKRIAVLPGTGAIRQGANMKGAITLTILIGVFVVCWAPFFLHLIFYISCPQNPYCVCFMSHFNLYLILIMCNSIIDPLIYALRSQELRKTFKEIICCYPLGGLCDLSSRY

| IC50 [1] [nM] | EC50 [2] [nM] | Activity [3] [%] | EC50 [4] [nM] | Activity [5] [%] | bioavailability [6] [%] | clearance [7] [mL/min/kg] | Vd [8] [L/kg] | half-life [9] [h] | Structure (SMILES) | inhibition in vivo at 20 mg/kg [10] [%] | inhibition in vivo at 6 mg/kg [11] [%] | inhibition in vivo at 20 mg/kg [13] [%] | inhibition in vivo at 6 mg/kg [14] [%] | inhibition in vivo at 3 mg/kg [15] [%] | inhibition in vivo at 20 mg/kg [16] [%] | inhibition in vivo at 10 mg/kg [17] [%] | inhibition in vivo at 20 mg/kg [18] [%] | inhibition in vivo at 10 mg/kg [19] [%] | further results |
| --- | --- | --- | --- | --- | --- | --- | --- | --- | --- | --- | --- | --- | --- | --- | --- | --- | --- | --- | --- |
| 9.7 | 48 | 99 | 1650 | 57 |  |  |  |  | Cc1cnc(C(C)(C)[C@H]2CC3(CCN(C(=O)[C@@H]4CN(C(C)(C)C)C[C@H]4c4ccc(F)cc4F)CC3)c3cc(Cl)c(C)cc32)o1 |  |  |  |  |  |  |  |  |  |  |
| 49 | 211 |  |  |  |  |  |  |  | Cc1cc2c(cc1Cl)C1(CCN(C(=O)[C@@H]3CN(C(C)(C)C)C[C@H]3c3ccc(F)cc3F)CC1)CC2C(C)(C)c1nnco1 (stereo in doubt; 5d1) [listing 1 of 2 here] |  |  |  |  |  |  |  |  |  |  |
|  |  | 117 |  | 10 |  |  |  |  | Cc1cc2c(cc1Cl)C1(CCN(C(=O)[C@@H]3CN(C(C)(C)C)C[C@H]3c3ccc(F)cc3F)CC1)CC2C(C)(C)c1nnco1 (stereo in doubt; 5d1) [listing 2 of 2 here] |  |  |  |  |  |  |  |  |  |  |
| 1.9 | 2.3 | 97 | 1140 | 88 |  |  |  |  | Cc1nnc(C(C)(C)[C@H]2CC3(CCN(C(=O)[C@@H]4CN(C(C)(C)C)C[C@H]4c4ccc(F)cc4F)CC3)c3cc(Cl)c(C)cc32)o1 |  |  |  |  |  |  |  |  |  |  |
|  |  | 92 |  | 57 |  |  |  |  | Cc1cc2c(cc1Cl)C1(CCN(C(=O)[C@@H]3CN(C(C)(C)C)C[C@H]3c3ccc(F)cc3F)CC1)CC2C(C)(C)c1nnco1 (stereo in doubt; 5d2) [listing 1 of 2 here] |  |  |  |  |  |  |  |  |  |  |
| 1.3 | 2.2 |  | 138 |  |  |  |  |  | Cc1cc2c(cc1Cl)C1(CCN(C(=O)[C@@H]3CN(C(C)(C)C)C[C@H]3c3ccc(F)cc3F)CC1)CC2C(C)(C)c1nnco1 (stereo in doubt; 5d2) [listing 2 of 2 here] |  |  |  |  |  |  |  |  |  |  |

Further lines, the molecule ahead of its results:

| Structure (SMILES) | IC50 [1] [nM] | EC50 [2] [nM] | Activity [3] [%] | EC50 [4] [nM] | Activity [5] [%] | bioavailability [6] [%] | clearance [7] [mL/min/kg] | Vd [8] [L/kg] | half-life [9] [h] | inhibition in vivo at 20 mg/kg [10] [%] | inhibition in vivo at 6 mg/kg [11] [%] | inhibition in vivo at 20 mg/kg [13] [%] | inhibition in vivo at 6 mg/kg [14] [%] | inhibition in vivo at 3 mg/kg [15] [%] | inhibition in vivo at 20 mg/kg [16] [%] | inhibition in vivo at 10 mg/kg [17] [%] | inhibition in vivo at 20 mg/kg [18] [%] | inhibition in vivo at 10 mg/kg [19] [%] | further results |
| --- | --- | --- | --- | --- | --- | --- | --- | --- | --- | --- | --- | --- | --- | --- | --- | --- | --- | --- | --- |
| Cc1cc2c(cc1Cl)C1(CCN(C(=O)[C@@H]3CN(C(C)(C)C)C[C@H]3c3ccc(F)cc3F)CC1)C[C@@H]2C(C)(C)c1ncnn1C | 0.41 | 0.23 | 106 | 125 | 80 | 26 | 6.7 | 5 | 9.4 | 18 | 27 | 38 | 51 | 29 | 24 | 47 | 17 | 32 | inhibition in vivo at 3 mg/kg [12]: 16%; inhibition in vivo at 10 mg/kg [20]: 67%; inhibition in vivo at 10 mg/kg [21]: 43% |
| Cc1cc2c(cc1Cl)C1(CCN(C(=O)[C@@H]3CN(C(C)(C)C)C[C@H]3c3ccc(F)cc3F)CC1)CC2C(C)(C)c1cnn[nH]1 (stereo not given in full) | 16 | 4.2 | 82 | 1040 | 31 |  |  |  |  |  |  |  |  |  |  |  |  |  |  |
| Cc1cc2c(cc1Cl)C1(CCN(C(=O)[C@@H]3CCN(C(C)(C)C)C[C@H]3c3ccc(F)cc3F)CC1)C[C@@H]2C(C)(C)c1ncnn1C | 1.7 | 2.4 | 96 | 1050 | 37 | 86 | 22 | 19 | 11 | 15 | 31 | 30 | 47 | 29 | 24 | 46 | 17 | 37 | inhibition in vivo at 3 mg/kg [12]: 8%; inhibition in vivo at 10 mg/kg [20]: 40%; inhibition in vivo at 10 mg/kg [21]: 19% |
| Cc1cc2c(cc1Cl)C1(CCN(C(=O)[C@@H]3CN(C4CCOCC4)C[C@H]3c3ccc(F)cc3F)CC1)C[C@@H]2C(C)(C)c1ncnn1C | 0.84 | 0.9 | 105 | 708 | 54 | 35 | 37 | 10 | 3.4 | 11 | 18 | 31 | 37 | 19 | 28 | 40 | 13 | 22 | inhibition in vivo at 10 mg/kg [20]: 20% |
| Cc1nc(C(C)(C)C2CC3(CCN(C(=O)[C@@H]4CN(C(C)(C)C)C[C@H]4c4ccc(F)cc4F)CC3)c3cc(Cl)c(C)cc32)no1 (stereo not given in full) | 5.7 | 14 | 71 | 855 | 46 |  |  |  |  |  |  |  |  |  |  |  |  |  |  |
| Cc1cc2c(cc1Cl)C1(CCN(C(=O)[C@@H]3CC(N(C)C4CCOCC4)C[C@H]3c3ccc(F)cc3F)CC1)C[C@@H]2C(C)(C)c1ncnn1C (stereo not given in full) | 0.43 | 0.11 | 99 | 250 | 49 | 20 | 24 | 9.7 | 5.1 | 17 | 28 | 39 | 56 | 31 | 35 | 46 | 18 | 30 | inhibition in vivo at 3 mg/kg [12]: 15%; inhibition in vivo at 10 mg/kg [22]: 31%; inhibition in vivo at 1 mg/kg [23]: 32%; inhibition in vivo at 3 mg/kg [24]: 56%; Activity [25]: Active; Activity [26]: Active; Activity [27]: Active |
